The target of one assay is T1, Ba/F3-Syk cells (Homo sapiens, UniProt P43405).
T1 construct: fused on or other part: Possible but unprinted fusion partner: TEL (ETV6), the usual partner for Ba/F3 lines transformed by Syk; Nothing on a partner is printed
Nature of the assay: Ba/F3 Proliferation Assay, Ba/F3-Syk cells (Resazurin). The format is cell-based. Particulars: 48-hour incubation. The protocol: (§1) Ba/F3-Syk and Ba/F3-WT (wild type) cells were maintained at ≤1×10^6 cell/mL in RPMI (Life Technologies) with 10% FBS at 37° C. and 5% CO2 for a maximum of four weeks. Ba/F3-WT additionally contained 2 ng/mL mIL-3 (R&D Systems) to induce cellular growth. Cells were counted and dispensed at 5000 cells/well using a Multidrop Liquid Dispenser in a volume of 45 μL into black 384-well TC treated plates (Greiner) and incubated for four hours in complete media (+mIL-3 for Ba/F3-WT). Compounds were serially diluted in 100% DMSO, prior to an intermediate dilution in RPMI media. 5 μL of compound (0.4% final DMSO) was added to the cells, followed by a 48-hour incubation period. 5 μL of Resazurin (60 μM final) was then added and cells were incubated at 37° C. for three hours, before fluorescence (λex530/λem585) was measured using an Ensight Multimode Plate Reader (Perkin Elmer).
In general terms: Alamar Blue is a resazurin reagent that responds to reducing activity.

Assay [1] concerns Ba/F3-WT (wild type) cells. Nature of the assay: Ba/F3 Proliferation Assay, Ba/F3-WT (wild type) cells with mIL-3 (Resazurin). The class given is cell-based. The note with it: Ba/F3-WT cells +mIL-3, 48-hour incubation. The protocol:
as §1

With `CC1(C)CNC[C@@H](COc2cc(-c3cnn(C4CCC4)c3)cc3ncccc23)O1` [Compound 3.13, 7-(1-cyclobutyl-1H-pyrazol-4-yl)-5-{[(2S)-6,6-dimethylmorpholin-2-yl]methoxy}quinoline], the concentration for a half-maximal effect (EC50) (commonly the concentration that produces a half-maximal response) on Ba/F3-Syk cells was determined as 35.8 nM; in assay [1] (Mus musculus, BaF3, 48 h), 814 nM.

Turning to `Cn1cc(-c2cc3ncccc3c(OC[C@@H]3CN[C@@H]4CCC[C@@H]4O3)n2)cn1` (relative stereo) [Compound 2.54, 5-{[rel-(2S,4aR,7aS)-octahydrocyclopenta[b][1,4]oxazin-2-yl]methoxy}-7-(1-methyl-1H-pyrazol-4-yl)-1,6-naphthyridine], the concentration giving a half-maximal response (EC50) is 288 nM on Ba/F3-Syk cells and 1580 nM in assay [1] (Mus musculus, BaF3, 48 h).

Consider `CC(F)(F)Cn1cc(-c2cc3ncccc3c(OC[C@@H]3CNCC(C)(C)O3)n2)cn1` [Compound 6.39, 7-[1-(2,2-difluoropropyl)-1H-pyrazol-4-yl]-5-{[(2S)-6,6-dimethylmorpholin-2-yl]methoxy}-1,6-naphthyridine], for which the 50% effective concentration (EC50) stood at 21.4 nM at Ba/F3-Syk cells and 1520 nM in assay [1] (Mus musculus, BaF3, 48 h).

For `CC1(C)CNC[C@@H](COc2cc(-c3cnn(C(C)(C)C)c3)cc3ncncc23)O1` [Compound 4.2, 7-(1-tert-butyl-1H-pyrazol-4-yl)-5-{[(2S)-6,6-dimethyl-morpholin-2-yl]methoxy} quinazoline], the EC50 was 171 nM at Ba/F3-Syk cells and above 10000 nM in assay [1] (Mus musculus, BaF3, 48 h).

Consider `COCCn1ccc(-c2cc(OC[C@@H]3CNCC4(CCC4)O3)c3nccnc3c2)c1` [Compound 8.18, 7-[1-(2-methoxyethyl)-1H-pyrrol-3-yl]-5-{[(6S)-5-oxa-8-azaspiro[3.5]nonan-6-yl]methoxy}quinoxaline], for which the half-maximal effective concentration (EC50) on Ba/F3-Syk cells came to 8.4 nM; in assay [1] (Mus musculus, BaF3, 48 h), 335 nM.

As to `CC(C)(C)n1cc(-c2cc(OC[C@@H]3CNCC4(CCC4)O3)c3cccnc3c2)cn1` [Compound 11.9, 7-(1-tert-butyl-1H-pyrazol-4-yl)-5-{[(6S)-5-oxa-8-azaspiro[3.5]nonan-6-yl]methoxy}quinoline], the EC50 came to 10 nM at Ba/F3-Syk cells and 1580 nM in assay [1] (Mus musculus, BaF3, 48 h).

As for `c1cnc2cc(-c3cncs3)nc(OC[C@@H]3CNCCO3)c2c1` [Compound 2.29, 5-{[(2S)-morpholin-2-yl]methoxy}-7-(1,3-thiazol-5-yl)-1,6-naphthyridine], the EC50 at Ba/F3-Syk cells was 1020 nM; in assay [1] (Mus musculus, BaF3, 48 h) it was above 10000 nM.

Turning to `Cc1ccnc2cc(-c3ccn(C4COC4)c3)cc(OC[C@@H]3CNCC(C)(C)O3)c12` [Compound 14.12, 5-{[(2S)-6,6-dimethylmorpholin-2-yl]methoxy}-4-methyl-7-[1-(oxetan-3-yl)-1H-pyrrol-3-yl]quinoline], the EC50 was 5.5 nM at Ba/F3-Syk cells and 867 nM in assay [1] (Mus musculus, BaF3, 48 h).

Regarding `CC[C@@H](C)n1ccc(-c2cc(OC[C@@H]3CNCCO3)c3nccnc3c2)c1` [Compound 8.24, 7-{1-[(2R)-butan-2-yl]-1H-pyrrol-3-yl}-5-{[(2S)-morpholin-2-yl]methoxy}quinoxaline], the EC50 is 12.9 nM on Ba/F3-Syk cells and above 1000 nM in assay [1] (Mus musculus, BaF3, 48 h).

For `CC(C)(C)n1ccc(-c2cc(OC[C@@H]3CNCC4(CC4)O3)c3cccnc3c2)c1` [Compound 3.18, 7-(1-tert-butyl-1H-pyrrol-3-yl)-5-{[(5S)-4-oxa-7-azaspiro[2.5]octan-5-yl]methoxy}quinoline], the EC50 was 23.1 nM at Ba/F3-Syk cells and 5420 nM in assay [1] (Mus musculus, BaF3, 48 h).

For `Cn1ccc(-c2cc3ncccc3c(O[C@@H]([C@@H]3CNCCO3)C(F)(F)F)n2)c1` [Compound 13.3, 7-(1-methyl-1H-pyrrol-3-yl)-5-[(1S)-2,2,2-trifluoro-1-[(2S)-morpholin-2-yl]ethoxy]-1,6-naphthyridine], the EC50 on Ba/F3-Syk cells was 1210 nM; in assay [1] (Mus musculus, BaF3, 48 h) it was above 10000 nM.

Turning to “7-(1-methyl-1H-pyrrol~3-yl)-5-{[(2S)-2-methylmorpholin-2-yl]methoxy}-1,6-naphthyridine [Compound 10.7]”, the values for the 50% effective concentration (EC50) (on Ba/F3-Syk cells; in assay [1]) were 274 nM and 1200 nM, respectively.

Take `Cc1cc(-c2cc(OC[C@@H]3CNCCO3)c3cccnc3c2)cs1` [Compound 3.7, 7-(5-methylthiophen-3-yl)-5-{[(2S)-morpholin-2-yl]methoxy}quinoline]: the EC50 was 134 nM on Ba/F3-Syk cells and 3730 nM in assay [1] (Mus musculus, BaF3, 48 h).

Consider `CC(C)(C)n1cc(-c2cc(OC[C@@H]3CNCC4(CC4)O3)c3cccnc3c2)cn1` [Compound 3.20, 7-(1-tert-butyl-1H-pyrazol-4-yl)-5-{[(5S)-4-oxa-7-azaspiro[2.5]octan-5-yl]methoxy}quinoline], for which the EC50 is 35.5 nM on Ba/F3-Syk cells and 1960 nM in assay [1] (Mus musculus, BaF3, 48 h).

For `c1cnc2cc(-c3cnn([C@H]4CCOC4)c3)nc(OC[C@@H]3CNCCO3)c2c1` [Compound 6.44, 5-{[(2S)-morpholin-2-yl]methoxy}-7-{1-[(3S)-oxolan-3-yl]-1H-pyrazol-4-yl}-1,6-naphthyridine], the concentration for a half-maximal effect (EC50) at Ba/F3-Syk cells is 32.9 nM; in assay [1] (Mus musculus, BaF3, 48 h), above 1000 nM.

Turning to “7-(1-tert-butyl-1H-pyrazol-4-yl)-5-{[(2R)-2-ethylmorpholin-2-yl]methoxy}-1,6-naphthyridine [Compound 10.15]”, the values for the EC50 (at Ba/F3-Syk cells; in assay [1]) were 92.2 nM and 1680 nM, respectively.

`CC1(C)CNC[C@@H](COc2cc(-c3ccn(C4CCC4)c3)cc3ncccc23)O1` [Compound 7.5, 7-(1-cyclobutyl-1H-pyrrol-3-yl)-5-{[(2S)-6,6-dimethylmorpholin-2-yl]methoxy}quinoline]: the concentration for a half-maximal effect (EC50) on Ba/F3-Syk cells was 36 nM; in assay [1] (Mus musculus, BaF3, 48 h), 2100 nM.

For the compound `CC1(Cn2cc(-c3cc4ncccc4c(OC[C@@H]4CNCCO4)n3)cn2)COC1` [Compound 6.36], the half-maximal effective concentration (EC50) on Ba/F3-Syk cells worked out at 81.6 nM; in assay [1] (Mus musculus, BaF3, 48 h), 1390 nM.

Consider `C[C@@H]1NCCO[C@@H]1COc1nc(-c2cnn(C(C)(C)C)c2)cc2ncccc12` [Compound 13.6, 7-(1-tert-butyl-1H-pyrazol-4-yl)-5-{[(2S,3S)-3-methylmorpholin-2-yl]methoxy}-1,6-naphthyridine], for which the half-maximal effective concentration (EC50) came to 36.2 nM at Ba/F3-Syk cells and 5560 nM in assay [1] (Mus musculus, BaF3, 48 h).

Regarding `CC1(C)CNC[C@@H](COc2cc(-c3ccn(C(C)(C)C)c3)cc3ncccc23)O1` [Compound 3.16, 7-(1-tert-butyl-1H-pyrrol-3-yl)-5-{[(28)-6,6-dimethylmorpholin-2-yl]methoxy}quinoline], the EC50 on Ba/F3-Syk cells was found to be 11.9 nM; in assay [1] (Mus musculus, BaF3, 48 h) it was 6170 nM.

Consider `CC(C)(C)n1cc(-c2cc3ncccc3c(OC[C@H]3CN[C@@H]4CCC[C@@H]4O3)n2)cn1` (stereo in doubt) [Compound 2.95, 5-{[(2R,4aR,7aS)-octahydrocyclopenta[b][1,4]oxazin-2-yl]methoxy}-7-(1-tert-butyl-1H-pyrazol-4-yl)-1,6-naphthyridine], for which the EC50 was determined as 22.1 nM at Ba/F3-Syk cells and 1850 nM in assay [1] (Mus musculus, BaF3, 48 h).

In the case of `CC(C)(C)n1cc(-c2cc3ncccc3c(OC[C@@H]3CN[C@H]4CCC[C@H]4O3)n2)cn1` (relative stereo) [Compound 2.85, 5-{[rel-(2S,4aS,7aR)-octahydrocyclopenta[b][1,4]oxazin-2-yl]methoxy}-7-(1-tert-butyl-1H-pyrazol-4-yl)-1,6-naphthyridine], on Ba/F3-Syk cells, a half-maximal effect (EC50) was put at 59.3 nM.

Consider `CC(C)(C)n1cc(-c2cc3ncccc3c(OC[C@@H]3CN[C@H]4CCC[C@H]4O3)n2)cn1` (stereo in doubt) [Compound 2.94, 5-{[(2S,4aS,7aR)-octahydrocyclopenta[b][1,4]oxazin-2-yl]methoxy}-7-(1-tert-butyl-1H-pyrazol-4-yl)-1,6-naphthyridine], for which the EC50 on Ba/F3-Syk cells amounted to 145 nM.
